Laboratory results as given in publication PMC9574862, “Designing Soluble PROTACs: Strategies and Preliminary Guidelines” (Journal of Medicinal Chemistry, 2022).
≈ marks a conversion by molar mass, not a printed value.

Legend:
[1] = Thermodynamic solubility, shake-flask, 10 mM PBS (0.15 M KCl) pH 7, 25 °C, 1 h, HPLC-UV; conditions: for solubility at 1 h / Classification (GSK guidelines) / Solubility (in words): pH 7, 25 °C; for Classification (GSK guidelines): solubility class
Procedure: Its measurement only requires an initial DMSO stock solution which is precipitated by the addition of an aqueous phase.[23],[24] Here, we measured thermodynamic solubility, often determined in late lead optimization, which efficiently considers the solubility value when the equilibrium with the stable phase or polymorph has been reached.
Solubility was determined in 10 mM PBS (0.15 M KCl) at pH 7, 25 °C. A 1–2 mg sample of each molecule was added to the same quantity (1–2 mL) of the mentioned buffer to obtain 1 mg/mL solutions in the vial. Samples were then submitted to 25 °C and magnetic stirring (500 rpm) for 1 h. After this period, solutions or suspensions were filtered through the 0.45 μm membrane pore and diluted with buffer, 10 mM PBS (0.15 M KCl). The amount of dissolved compound in each sample was then quantified, in duplicate, via HPLC using ultraviolet (UV) spectrometric detection.
Variable volumes of pure DMSO (0–100 μL) were added separately to small and defined (1 mg) quantities of each compound to obtain clear solutions. […] Afterward, 5% DMSO 10 mM PBS (0.15 M KCl) was added until the suspensions or precipitations were redissolved, to render clear solutions. As soon as solutions were obtained, they were used as mother solutions for the performance of 5–10 point calibration curves with serial buffer dilutions (1:1; v/v) 5% DMSO 10 mM PBS (0.15 M KCl). Calibration points were then measured via HPLC-UV.
The mobile phase consisted of a solution of acetonitrile (ACN) and 20 mM ammonium acetate buffer (AAB), pH 7, freshly prepared. A 10 μL volume of each sample (volume of injection) was injected at an isocratic 1 mL/min flow rate analyzed at 30 °C (oven temperature). Solubility determination of each compound required a specific HPLC method. Settings are collected in Table S11 (PROTACs) and Table S10 (building blocks).
Injections were performed in duplicate for each molecule’s calibration points. The retention time and area under the curve (AUC in absorbance units) were collected, and the average was calculated. The AUC average (y-axis) was plotted versus theoretical concentration (mg/mL; x-axis) to obtain a calibration curve for each molecule. Correlation equations and coefficients (R^2) were efficiently calculated for each compound (Table S12 for PROTACs and Table S10 for building blocks). Samples were then injected in duplicate, and the AUC averages and standard deviations were calculated. Finally, the absorbance averages were interpolated into the corresponding equations, extracting the final solubility values with their standard deviation, after dilution factor corrections.

[2] = log kw^IAM – clog kw^IAM
Procedure: Since polarity is a molecular property often related to solubility,[13] experimental descriptors of polarity (Δ log kw^IAM and EPSA) were also determined. Introduced by Grumetto in 2012,[30] Δ log kw^IAM is the difference between the experimental log kw^IAM and the value expected for neutral analytes with a zero value of polar surface area (which depends on the experimental measurement of the n-octanol partition coefficient[31]). EPSA quantifies the polarity of a molecule using a supercritical fluid chromatographic (SFC) method.[32]

[3] = 25 °C, pH 7, aqueous buffer, thermodynamic from solid, Solubility average, thermodynamic, shake-flask, 1 h
[4] = 25 °C, pH 7, aqueous buffer, thermodynamic from solid, Solubility log S, Table S-3
[5] = 25 °C, pH 7, aqueous buffer, thermodynamic from solid, Solubility, Table S-3
[6] = pH 7, aqueous buffer, thermodynamic from solid
[7] = 25 °C, pH 7, aqueous buffer, thermodynamic from solid, Exp.LogS, PROTAC pairs and building blocks
[8] = pH 7, Exp.LogS, PROTAC pairs and building blocks

SMILES | solubility at 1 h [1, 3] [µM] | solubility at 1 h [1, 4] [µM] | solubility at 1 h [1, 5] [µg/mL] | Classification (GSK guidelines) [1] | solubility thermodynamic at 1 h [1, 6] [µg/mL] | Solubility (in words) [1] | solubility at 1 h [1, 7] [µM] | ΔLog kw IAM [2] | solubility at 1 h [1, 8] [µM]
Cc1ncsc1-c1ccc(CNC(=O)[C@@H]2C[C@H](O)CN2C(=O)[C@@H](NC(=O)COCCOCCOCCNC(=O)C[C@@H]2N=C(c3ccc(Cl)cc3)c3c(sc(C)c3C)-n3c(C)nnc32)C(C)(C)C)cc1 [CisMZ1] | 50.1 | 50.1 | 50 | Intermediate (30–200 μM) (Intermediate (30–200 μM)) |  |  |  |  | 
COc1cc(-c2cn(C)c(=O)c3cnccc23)cc(OC)c1CN1CCN(CCCCCOc2cc(-c3scnc3C)ccc2CNC(=O)[C@@H]2C[C@@H](O)CN2C(=O)[C@@H](NC(=O)C2(F)CC2)C(C)(C)C)CC1 [VZ185] | 50.1 | 50.1 | 50 | Intermediate (30–200 μM) (Intermediate (30–200 μM)) |  |  |  |  | 
COc1cc2ncnc(Nc3ccc(F)c(Cl)c3)c2cc1OCCCCCOCCOCCC(=O)N[C@H](C(=O)N1C[C@H](O)C[C@H]1C(=O)NCc1ccc(-c2scnc2C)cc1)C(C)(C)C [Gefitinib-based PROTAC 3] | 1.23 | 1.23 |  | Low (< 30 μM) (Low (< 30 μM)) | 1.14 (≈ 1.22 µM) |  |  |  | 
O=C(CCCCC(=O)NCCN1C(=O)c2cccc3c(Sc4ccc(Br)cc4)ccc(c23)C1=O)NCCCCCCNc1cccc2c1C(=O)N(C1CCC(=O)NC1=O)C2=O (stereo not drawn) [Mcl1 degrader-1] | < 0.87 | < 0.871 |  | Low (< 30 μM) (Low (< 30 μM)) | < 0.793 | below the quantification limit |  |  | 
Cc1ncsc1-c1ccc(CNC(=O)[C@@H]2C[C@@H](O)CN2C(=O)[C@@H](NC(=O)COCCOCCOCCNC(=O)C[C@@H]2N=C(c3ccc(Cl)cc3)c3c(sc(C)c3C)-n3c(C)nnc32)C(C)(C)C)cc1 [MZ1] | 38 |  | 40 | Intermediate (30–200 μM) (Intermediate (30–200 μM)) |  |  | 38 |  | 
COc1cc(C(=O)NCCOCCOCCOCCC(=O)Nc2cccc3c2C(=O)N(C2CCC(=O)NC2=O)C3=O)ccc1Nc1ncc(C(F)(F)F)c(Oc2cccc3c2C(=O)CC3)n1 (stereo not drawn) [BI-3663] | 6.92 |  | 10 | Low (< 30 μM) (Low (< 30 μM)) |  |  | 6.92 |  | 
CC(C)(C)c1cnc(CSc2cnc(NC(=O)C3CCN(CC(=O)NCCOCCOCCOCCNc4cccc5c4C(=O)N(C4CCC(=O)NC4=O)C5=O)CC3)s2)o1 (stereo not drawn) [THAL-SNS-032] | 52.5 | 52.5 | 50 | Intermediate (30–200 μM) (Intermediate (30–200 μM)) |  |  |  |  | 
Cc1ncsc1-c1ccc(CNC(=O)[C@@H]2C[C@@H](O)CN2C(=O)[C@@H](NC(=O)CCCCOCCCCCOCCCCCCNc2cccc3c2C(=O)N(C2CCC(=O)NC2=O)C3=O)C(C)(C)C)cc1 (stereo partly drawn) [CRBN-6-5-5-VHL] | 1.23 | 1.23 |  | Low (< 30 μM) (Low (< 30 μM)) | 1.19 (≈ 1.22 µM) |  |  |  | 
O=C1CCC(N2Cc3c(C#CCCCNC(=O)c4ccc(NC(=O)[C@@H]5NC6(CCCCC6)[C@@]6(C(=O)Nc7cc(Cl)ccc76)[C@H]5c5cccc(Cl)c5F)cc4)cccc3C2=O)C(=O)N1 (stereo partly drawn) [MD-224] | < 0.23 | < 0.229 |  | Low (< 30 μM) (Low (< 30 μM)) | < 0.289 | below the quantification limit |  |  | 
Cc1ncsc1-c1ccc(CNC(=O)[C@@H]2C[C@@H](O)CN2C(=O)[C@@H](NC(=O)COCCOCCOCCOCCOCCOCC(=O)N[C@H](C(=O)N2C[C@H](O)C[C@H]2C(=O)NCc2ccc(-c3scnc3C)cc2)C(C)(C)C)C(C)(C)C)cc1 [CM11] | 631 | 631 | 730 | High (> 200 μM) (High (> 200 μM)) |  |  |  | high | 
Cc1ncsc1-c1ccc(CNC(=O)[C@@H]2C[C@H](O)CN2C(=O)[C@@H](NC(=O)COCCOCCOCCOCCOCCOCC(=O)N[C@H](C(=O)N2C[C@@H](O)C[C@H]2C(=O)NCc2ccc(-c3scnc3C)cc2)C(C)(C)C)C(C)(C)C)cc1 [CMP98] | 331 | 331 | 390 | High (> 200 μM) (High (> 200 μM)) |  |  |  | high | 
Cc1ncsc1-c1ccc(CNC(=O)[C@@H]2C[C@@H](O)CN2C(=O)[C@@H](NC(=O)C2(F)CC2)C(C)(C)C)c(OCCOc2ccc(CN3CCN(c4cc(-c5ccccc5O)nnc4N)CC3)cc2)c1 [ACBI1] | < 0.72 |  |  | Low (< 30 μM) (Low (< 30 μM)) | < 0.68 | below the quantification limit |  |  | 
Cc1sc2c(c1C)C(c1ccc(Cl)cc1)=N[C@@H](CC(=O)Nc1ccc(OCCOCCOCCOCCNc3cccc4c3C(=O)N(C3CCC(=O)NC3=O)C4=O)cc1)c1nnc(C)n1-2 (stereo partly drawn) [ARV-825] | < 0.32 |  |  | Low (< 30 μM) (Low (< 30 μM)) | < 0.29 | below the quantification limit |  |  | 
Cc1ncsc1-c1ccc(CNC(=O)[C@@H]2C[C@H](O)CN2C(=O)[C@@H](NC(=O)C2(F)CC2)C(C)(C)C)c(OCCOc2ccc(CN3CCN(c4cc(-c5ccccc5O)nnc4N)CC3)cc2)c1 [CisACBI1] | < 0.87 | < 0.871 |  | Low (< 30 μM) (Low (< 30 μM)) | < 0.817 | below the quantification limit |  |  | 
COc1cc(C(=O)NCCOCCOCCOCC(=O)N[C@H](C(=O)N2C[C@H](O)C[C@H]2C(=O)NCc2ccc(-c3scnc3C)cc2)C(C)(C)C)ccc1Nc1ncc(C(F)(F)F)c(Oc2cccc3c2C(=O)CC3)n1 [BI-0319] | 2.63 |  |  | Low (< 30 μM) (Low (< 30 μM)) | 2.78 (≈ 2.62 µM) |  | 2.63 |  | 
COC(=O)C[C@@H]1N=C(c2ccc(Cl)cc2)c2c(sc(C(=O)NCCCCCNc3cccc4c3C(=O)N(C3CCC(=O)NC3=O)C4=O)c2C)-n2c(C)nnc21 (stereo partly drawn) [ZXH-3-26] | 2.95 |  |  | Low (< 30 μM) (Low (< 30 μM)) |  |  |  |  | 2.95
CC(=O)N1c2ccc(-c3ccc(C(=O)NCCOCCOCCOCC(=O)N[C@H](C(=O)N4C[C@H](O)C[C@H]4C(=O)NCc4ccc(-c5scnc5C)cc4)C(C)(C)C)cc3)cc2[C@H](Nc2ccc(Cl)cc2)C[C@@H]1C [MZP-54] | 0.51 |  |  | Low (< 30 μM) (Low (< 30 μM)) | 0.528 (≈ 0.509 µM) |  | 0.513 |  | 
CC(=O)c1c(C)c2cnc(Nc3ccc(N4CCN(CCOCCOCCOCCNC(=O)COc5cccc6c5C(=O)N(C5CCC(=O)NC5=O)C6=O)CC4)cn3)nc2n(C2CCCC2)c1=O (stereo not drawn) [BSJ-03-123] | 17.8 | 17.8 | 20 | Low (< 30 μM) (Low (< 30 μM)) |  |  |  |  | 
Cc1sc2c(c1C)C(c1ccc(Cl)cc1)=N[C@@H](CC(=O)NCCNc1cccc3c1C(=O)N(C1CCC(=O)NC1=O)C3=O)c1nnc(C)n1-2 (stereo partly drawn) [dBET57] | 30.2 |  | 20 | Intermediate (30–200 μM) (Intermediate (30–200 μM)) |  |  |  |  | 30.2
COc1cc(C(=O)NCCOCCOCCOCC(=O)N[C@H](C(=O)N2C[C@@H](O)C[C@H]2C(=O)NCc2ccc(-c3scnc3C)cc2)C(C)(C)C)ccc1Nc1ncc(C(F)(F)F)c(Oc2cccc3c2C(=O)CC3)n1 [BI-4206] | 0.58 |  |  | Low (< 30 μM) (Low (< 30 μM)) | 0.606 (≈ 0.571 µM) |  | 0.575 |  | 
